Values of other authors as cited in patent US20150005255A1, “COSMETIC COMPOSITION, FORMULATION IN GEL-CREAM AND ITS USE” (EMS S.A., priority 2013, published 2015).

How the values were obtained:
lysosomal enzymes = settings: in skin care products

Row | Substance | reduction of lysosomal activity (lysosomal enzymes) | volume of observed areas with cellulite (localized lipodystrophy; formula of Xantalgosil C applied twice daily for one month, 25 volunteers) | activation of adipocyte lipolysis (localized lipodystrophy; in vivo)
1 | Escin | up to 30% | – | –
2 | acefylline methylsilanol mannuronate [Xantalgosil C] | – | reduction of volume in observed areas | outstanding action
